Results on 40 molecules are retold here after US20130116241A1, “NOVEL INHIBITOR COMPOUNDS OF PHOSPHODIESTERASE TYPE 10A” (AbbVie Inc., priority 2011, published 2013).

Where a name gives a salt, the structure may show the parent alone.

The target of the test is human PDE10A (UniProt Q9Y233). The test is described as follows: Measurement of PDE activity (recombinant enzyme, HTRF cAMP kit). As to conditions: Table 1, substrate 20 nM for PDE10, 60 minutes at 29 C, read-out: IC50. The test is classed as biochemical. The procedure, abridged: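 HTRF detection of cAMP left after hydrolysis, expressed as percent of uninhibited control to derive IC50. Reaction: serially diluted inhibitor mixed with recombinant enzyme, started with 20 nM cAMP, 60 min at 29 °C in Tris-HCl pH 7.5 buffer containing MgCl2 and BSA.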
Sequence of human PDE10A (Q9Y233 290-1055 limits assumed): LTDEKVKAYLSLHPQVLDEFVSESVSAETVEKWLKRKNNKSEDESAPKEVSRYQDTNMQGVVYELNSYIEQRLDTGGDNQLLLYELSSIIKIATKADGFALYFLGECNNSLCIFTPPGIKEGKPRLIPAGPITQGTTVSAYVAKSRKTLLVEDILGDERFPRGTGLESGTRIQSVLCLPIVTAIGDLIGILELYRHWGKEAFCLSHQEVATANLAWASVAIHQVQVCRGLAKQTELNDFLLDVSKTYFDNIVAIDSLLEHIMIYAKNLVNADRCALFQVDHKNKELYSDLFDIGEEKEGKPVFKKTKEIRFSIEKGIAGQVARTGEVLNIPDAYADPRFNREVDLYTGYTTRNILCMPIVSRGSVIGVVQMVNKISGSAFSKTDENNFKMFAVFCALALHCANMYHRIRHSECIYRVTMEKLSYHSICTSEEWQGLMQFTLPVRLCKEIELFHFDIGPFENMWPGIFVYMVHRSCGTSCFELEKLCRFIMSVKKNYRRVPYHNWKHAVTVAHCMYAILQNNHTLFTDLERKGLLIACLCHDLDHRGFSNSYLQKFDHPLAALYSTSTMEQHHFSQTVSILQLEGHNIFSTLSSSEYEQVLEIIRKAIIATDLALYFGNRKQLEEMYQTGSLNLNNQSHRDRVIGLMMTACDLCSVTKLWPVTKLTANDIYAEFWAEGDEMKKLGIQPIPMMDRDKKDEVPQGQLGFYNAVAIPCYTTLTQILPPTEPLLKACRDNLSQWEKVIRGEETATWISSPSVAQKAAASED
Background: In TR-FRET formats the signal depends on donor and acceptor labels being close together.
Broadly, the IC50 is the point on the concentration scale where inhibition reaches its midpoint. Turning to `O=c1c2c(-c3cccc(O)c3)cccc2cnn1CCc1ccc2ccccc2n1` [Example 116, 8-(3-Hydroxyphenyl)-2-[2-(quinolin-2-yl)ethyl]phthalazin-1(2H)-one], the half-inhibitory concentration (IC50) is less than 100 nM.

Take `CN(C)C(=O)c1cccc(-c2cccc3cnn(CCc4ccc5ccccc5n4)c(=O)c23)c1` [Example 117, N,N-Dimethyl-3-{4-oxo-3-[2-(quinolin-2-yl)ethyl]-3,4-dihydrophthalazin-5-yl}benzamide]: the concentration for half-maximal inhibition (IC50) fell in the range of 100 to 200 nM.

With `O=c1c2c(-c3cccs3)cccc2cnn1CCc1ccc2ccccc2n1` [Example 119, 2-[2-(Quinolin-2-yl)ethyl]-8-(thiophen-2-yl)phthalazin-1(2H)-one], the half-inhibitory concentration (IC50) is 200 to 500 nM.

On to `Cc1n[nH]c(C)c1-c1cccc2cnn(CCc3ccc4ccccc4n3)c(=O)c12` [Example 121, 8-(3,5-Dimethyl-1H-pyrazol-4-yl)-2-[2-(quinolin-2-yl)ethyl]phthalazin-1(2H)-one], for which the half-inhibitory concentration (IC50) is 100 to 200 nM.

As for `O=c1c2c(-c3ccc4[nH]ccc4c3)cccc2cnn1CCc1ccc2ccccc2n1` [Example 122, 8-(1H-Indol-5-yl)-2-[2-(quinolin-2-yl)ethyl]phthalazin-1(2H)-one], the half-inhibitory concentration (IC50) fell in the range of 200 to 500 nM.

In the case of `O=c1c2c(-c3ccc4cc[nH]c4c3)cccc2cnn1CCc1ccc2ccccc2n1` [Example 123, 8-(1H-Indol-6-yl)-2-[2-(quinolin-2-yl)ethyl]phthalazin-1(2H)-one], the IC50 was 200 to 500 nM.

As for `O=c1c2c(-c3cncnc3)cccc2cnn1CCc1ccc2ccccc2n1` [Example 124, 8-(Pyrimidin-5-yl)-2-[2-(quinolin-2-yl)ethyl]phthalazin-1(2H)-one], the half-maximal inhibitory concentration (IC50) was less than 100 nM.

In the case of `COc1ncccc1-c1cccc2cnn(CCc3ccc4ccccc4n3)c(=O)c12` [Example 125, 8-(2-Methoxypyridin-3-yl)-2-[2-(quinolin-2-yl)ethyl]phthalazin-1(2H)-one], the IC50 was 200 to 500 nM.

For `O=c1c2c(-c3cccnc3)cccc2cnn1CCc1ccc2ccccc2n1` [Example 126, 8-(Pyridin-3-yl)-2-[2-(quinolin-2-yl)ethyl]phthalazin-1(2H)-one], the half-maximal inhibitory concentration (IC50) was less than 100 nM.

As for `O=c1c2c(-c3ccoc3)cccc2cnn1CCc1ccc2ccccc2n1` [Example 127, 8-(Furan-3-yl)-2-[2-(quinolin-2-yl)ethyl]phthalazin-1(2H)-one], the IC50 was less than 100 nM.

For `O=c1c2c(-c3ccc4c(c3)CCO4)cccc2cnn1CCc1ccc2ccccc2n1` [Example 130, 8-(2,3-Dihydro-1-benzofuran-5-yl)-2-[2-(quinolin-2-yl)ethyl]phthalazin-1(2H)-one], the IC50 lay within 200 to 500 nM.

Regarding `COc1ccc(-c2cccc3cnn(CCc4ccc5ccccc5n4)c(=O)c23)cn1` [Example 133, 8-(6-Methoxypyridin-3-yl)-2-[2-(quinolin-2-yl)ethyl]phthalazin-1(2H)-one], the half-inhibitory concentration (IC50) is less than 100 nM.

For `Cc1cc(-c2cccc3cnn(CCc4ccc5ccccc5n4)c(=O)c23)ccn1` [Example 135, 8-(2-Methylpyridin-4-yl)-2-[2-(quinolin-2-yl)ethyl]phthalazin-1(2H)-one], the concentration for half-maximal inhibition (IC50) is less than 100 nM.

For the molecule `COc1cncc(-c2cccc3cnn(CCc4ccc5ccccc5n4)c(=O)c23)c1` [Example 136, 8-(5-Methoxypyridin-3-yl)-2-[2-(quinolin-2-yl)ethyl]phthalazin-1(2H)-one], the IC50 is less than 100 nM.

Take `O=c1c2c(-c3cncc(F)c3)cccc2cnn1CCc1ccc2ccccc2n1` [Example 137, 8-(5-Fluoropyridin-3-yl)-2-[2-(quinolin-2-yl)ethyl]phthalazin-1(2H)-one]: the half-maximal inhibitory concentration (IC50) was less than 100 nM.

Turning to `O=c1c2c(-c3ccc4c(c3)OCO4)cccc2cnn1CCc1ccc2ccccc2n1` [Example 138, 8-(1,3-Benzodioxol-5-yl)-2-[2-(quinolin-2-yl)ethyl]phthalazin-1(2H)-one], the IC50 lay in the range of 200 to 500 nM.

As for `Cn1cc(-c2cccc3cnn(CCc4ccc5ccccc5n4)c(=O)c23)cn1` [Example 139, 8-(1-Methyl-1H-pyrazol-4-yl)-2-[2-(quinolin-2-yl)ethyl]phthalazin-1(2H)-one], the IC50 was less than 100 nM.

In the case of `CC(C)Cn1cc(-c2cccc3cnn(CCc4ccc5ccccc5n4)c(=O)c23)cn1` [Example 140, 8-[1-(2-Methylpropyl)-1H-pyrazol-4-yl]-2-[2-(quinolin-2-yl)ethyl]phthalazin-1(2H)-one], the 50% inhibitory concentration (IC50) was in the range of 200 to 500 nM.

On to `O=c1c2c(-c3ccc(F)cc3Cl)cccc2cnn1CCc1ccc2ccccc2n1` [Example 143, 8-(2-Chloro-4-fluorophenyl)-2-[2-(quinolin-2-yl)ethyl]phthalazin-1(2H)-one], for which the IC50 was 200 to 500 nM.

As to `O=c1c2c(-c3cccc(F)c3F)cccc2cnn1CCc1ccc2ccccc2n1` [Example 147, 8-(2,3-Difluorophenyl)-2-[2-(quinolin-2-yl)ethyl]phthalazin-1(2H)-one], the IC50 is less than 100 nM.

For `COc1ccc(-c2cccc3cnn(CCc4ccc5ccccc5n4)c(=O)c23)cc1OC` [Example 148, 8-(3,4-Dimethoxyphenyl)-2-[2-(quinolin-2-yl)ethyl]phthalazin-1(2H)-one], the IC50 lay within 100 to 200 nM.

Take `O=c1c2c(-c3ccc(F)c(F)c3)cccc2cnn1CCc1ccc2ccccc2n1` [Example 149, 8-(3,4-difluorophenyl)-2-[2-(quinolin-2-yl)ethyl]phthalazin-1(2H)-one]: the 50% inhibitory concentration (IC50) lay within 200 to 500 nM.

Take `COc1cc(OC)cc(-c2cccc3cnn(CCc4ccc5ccccc5n4)c(=O)c23)c1` [Example 152, 8-(3,5-Fimethoxyphenyl)-2-[2-(quinolin-2-yl)ethyl]phthalazin-1(2H)-one]: the IC50 is 200 to 500 nM.

For the molecule `O=c1c2c(-c3cc(F)ccc3F)cccc2cnn1CCc1ccc2ccccc2n1` [Example 153, 8-(2,5-Difluorophenyl)-2-[2-(quinolin-2-yl)ethyl]phthalazin-1(2H)-one], the IC50 lay in the range of 100 to 200 nM.

In the case of `COc1ccc(-c2cccc3cnn(CCc4ccc5ccccc5n4)c(=O)c23)cc1F` [Example 154, 8-(3-Fluoro-4-methoxyphenyl)-2-[2-(quinolin-2-yl)ethyl]phthalazin-1(2H)-one], the IC50 lay in the range of 200 to 500 nM.

For `O=c1c2c(-c3cc(F)cc(F)c3)cccc2cnn1CCc1ccc2ccccc2n1` [Example 156, 8-(3,5-Difluorophenyl)-2-[2-(quinolin-2-yl)ethyl]phthalazin-1(2H)-one], the IC50 lay within 100 to 200 nM.

Take `COc1cc(F)cc(-c2cccc3cnn(CCc4ccc5ccccc5n4)c(=O)c23)c1` [Example 157, 8-(3-Fluoro-5-methoxyphenyl)-2-[2-(quinolin-2-yl)ethyl]phthalazin-1(2H)-one]: the IC50 is 200 to 500 nM.

Take `O=c1c2c(-c3ccccc3)cccc2cnn1CCc1ccc2ccccc2n1` [Example 159, 8-Phenyl-2-[2-(quinolin-2-yl)ethyl]phthalazin-1(2H)-one]: the 50% inhibitory concentration (IC50) was less than 100 nM.

Turning to `Cn1nccc1-c1cccc2cnn(CCc3ccc4ccccc4n3)c(=O)c12` [Example 161, 8-(1-Methyl-1H-pyrazol-5-yl)-2-[2-(quinolin-2-yl)ethyl]phthalazin-1(2H)-one hydrochloride], the IC50 was less than 100 nM.

On to `Cc1ccc(-c2cccc3cnn(CCc4ccc5ccccc5n4)c(=O)c23)c(F)c1` [Example 163, 8-(2-Fluoro-4-methylphenyl)-2-[2-(quinolin-2-yl)ethyl]phthalazin-1(2H)-one], for which the IC50 was in the range of 200 to 500 nM.

With `O=c1c2c(-c3cccnc3)cccc2cnn1CCc1cn2ccccc2n1` [Example 165, 2-[2-(Imidazo[1,2-a]pyridin-2-yl)ethyl]-8-(pyridin-3-yl)phthalazin-1(2H)-one], the IC50 lay in the range of 200 to 500 nM.

Take `O=c1c2c(-c3ccncc3)cccc2cnn1CCc1cn2ccccc2n1` [Example 166, 2-[2-(Imidazo[1,2-a]pyridin-2-yl)ethyl]-8-(pyridin-4-yl)phthalazin-1(2H)-one]: the IC50 was less than 100 nM.

With `COc1cnccc1-c1cccc2cnn(CCc3cn4ccccc4n3)c(=O)c12` [Example 167, 2-[2-(Imidazo[1,2-a]pyridin-2-yl)ethyl]-8-(3-methoxypyridin-4-yl)phthalazin-1(2H)-one], the half-inhibitory concentration (IC50) fell in the range of 200 to 500 nM.

As for `O=c1c2c(-c3cncnc3)cccc2cnn1CCc1cn2ccccc2n1` [Example 168, 2-[2-(Imidazo[1,2-a]pyridin-2-yl)ethyl]-8-(pyrimidin-5-yl)phthalazin-1(2H)-one], the half-inhibitory concentration (IC50) was less than 100 nM.

Take `Cn1ccc(-c2cccc3cnn(CCc4cn5ccccc5n4)c(=O)c23)n1` [Example 169, 2-[2-(Imidazo[1,2-a]pyridin-2-yl)ethyl]-8-(1-methyl-1H-pyrazol-3-yl)phthalazin-1(2H)-one]: the IC50 fell in the range of 200 to 500 nM.

In the case of `O=c1c2c(-c3ccoc3)cccc2cnn1CCc1cn2ccccc2n1` [Example 170, 8-(Furan-3-yl)-2-[2-(Imidazo[1,2-a]pyridin-2-yl)ethyl]phthalazin-1(2H)-one], the half-maximal inhibitory concentration (IC50) was less than 100 nM.

Regarding `O=C1Cc2ccc(-c3cccc4cnn(CCc5cn6ccccc6n5)c(=O)c34)cc2N1` [Example 171, 2-[2-(Imidazo[1,2-a]pyridin-2-yl)ethyl]-8-(2-oxo-2,3-dihydro-1H-indol-6-yl)phthalazin-1(2H)-one], the IC50 was less than 100 nM.

For `O=c1c2c(N3CCS(=O)(=O)CC3)cccc2cnn1CCc1ccc2ccccc2n1` [Example 173, 8-(1,1-Dioxidothiomorpholin-4-yl)-2-[2-(quinolin-2-yl)ethyl]-phthalazin-1(2H)-one], the IC50 was less than 100 nM.

On to `O=c1c2c(N3CCOCC3)cccc2cnn1CCc1cn2ccccc2n1` [Example 174, 2-[2-(Imidazo[1,2-a]pyridin-2-yl)ethyl]-8-(morpholin-4-yl)phthalazin-1(2H)-one], for which the concentration for half-maximal inhibition (IC50) was less than 100 nM.

As to `O=c1c2c(N3CCS(=O)(=O)CC3)cccc2cnn1CCc1cn2ccccc2n1` [Example 175, 8-(1,1-Dioxidothiomorpholin-4-yl)-2-[2-(imidazo[1,2-a]pyridin-2-yl)ethyl]phthalazin-1(2H)-one], the 50% inhibitory concentration (IC50) lay in the range of 100 to 200 nM.
